Test results: publication PMC11410943 (Nature Communications, 2024)
≈ marks a conversion by molar mass, not a printed value.

Legend:
[1] = system: Escherichia coli; assay: MIC; conditions: Escherichia coli
[2] = system: Pseudomonas aeruginosa; assay: MIC; conditions: Pseudomonas aeruginosa
[3] = system: Klebsiella pneumoniae; assay: MIC; conditions: Klebsiella pneumoniae
[4] = system: Acinetobacter baumannii; assay: MIC; conditions: Acinetobacter baumannii, IHMA/CARB-X MDR clinical isolates 2019, N=298
[5] = system: Enterobacter cloacae; assay: MIC; conditions: Enterobacter cloacae, IHMA/CARB-X MDR clinical isolates 2019, N=152
[6] = system: Citrobacter spp.; assay: MIC; conditions: Citrobacter
[7] = system: Proteus spp.; assay: MIC
[8] = system: Morganella morganii; assay: MIC; conditions: Morganella morganii, IHMA/CARB-X MDR clinical isolates 2019, N=42
[9] = system: Neisseria gonorrhoeae; assay: MIC; conditions: IHMA/CARB-X isolates 1997 to 2021, N=90
[10] = target: E. coli gyrase (Escherichia coli, UniProt P0AES4); assay: E. coli gyrase supercoiling inhibition; assay type: biochemical
Sequence of E. coli gyrase (P0AES4 whole entry): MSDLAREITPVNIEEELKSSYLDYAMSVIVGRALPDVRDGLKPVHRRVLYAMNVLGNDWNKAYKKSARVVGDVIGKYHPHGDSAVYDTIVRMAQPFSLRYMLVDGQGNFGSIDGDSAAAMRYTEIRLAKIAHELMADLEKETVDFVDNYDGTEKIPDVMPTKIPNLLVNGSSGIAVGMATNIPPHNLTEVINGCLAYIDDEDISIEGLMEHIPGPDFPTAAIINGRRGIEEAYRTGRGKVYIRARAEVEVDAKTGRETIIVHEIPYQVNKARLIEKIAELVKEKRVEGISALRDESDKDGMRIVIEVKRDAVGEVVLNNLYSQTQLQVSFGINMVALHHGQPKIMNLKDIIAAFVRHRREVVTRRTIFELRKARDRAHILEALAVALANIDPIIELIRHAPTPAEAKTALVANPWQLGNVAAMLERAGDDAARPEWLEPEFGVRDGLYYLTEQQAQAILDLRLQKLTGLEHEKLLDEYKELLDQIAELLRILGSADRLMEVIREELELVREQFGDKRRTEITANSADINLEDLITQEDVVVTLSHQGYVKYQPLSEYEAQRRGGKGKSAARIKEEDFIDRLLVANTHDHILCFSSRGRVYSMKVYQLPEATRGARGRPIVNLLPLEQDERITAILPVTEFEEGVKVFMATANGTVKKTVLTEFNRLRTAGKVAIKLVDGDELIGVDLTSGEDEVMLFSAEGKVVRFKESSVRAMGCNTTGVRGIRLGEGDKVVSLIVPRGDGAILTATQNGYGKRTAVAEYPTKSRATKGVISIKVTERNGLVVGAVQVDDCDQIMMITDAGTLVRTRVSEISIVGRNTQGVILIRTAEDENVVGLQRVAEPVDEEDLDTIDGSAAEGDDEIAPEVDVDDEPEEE

[11] = target: E. coli topoisomerase IV (Escherichia coli, UniProt P0AFI2); assay: E. coli topoisomerase IV decatenation inhibition; assay type: biochemical
Sequence of E. coli topoisomerase IV (P0AFI2 whole entry): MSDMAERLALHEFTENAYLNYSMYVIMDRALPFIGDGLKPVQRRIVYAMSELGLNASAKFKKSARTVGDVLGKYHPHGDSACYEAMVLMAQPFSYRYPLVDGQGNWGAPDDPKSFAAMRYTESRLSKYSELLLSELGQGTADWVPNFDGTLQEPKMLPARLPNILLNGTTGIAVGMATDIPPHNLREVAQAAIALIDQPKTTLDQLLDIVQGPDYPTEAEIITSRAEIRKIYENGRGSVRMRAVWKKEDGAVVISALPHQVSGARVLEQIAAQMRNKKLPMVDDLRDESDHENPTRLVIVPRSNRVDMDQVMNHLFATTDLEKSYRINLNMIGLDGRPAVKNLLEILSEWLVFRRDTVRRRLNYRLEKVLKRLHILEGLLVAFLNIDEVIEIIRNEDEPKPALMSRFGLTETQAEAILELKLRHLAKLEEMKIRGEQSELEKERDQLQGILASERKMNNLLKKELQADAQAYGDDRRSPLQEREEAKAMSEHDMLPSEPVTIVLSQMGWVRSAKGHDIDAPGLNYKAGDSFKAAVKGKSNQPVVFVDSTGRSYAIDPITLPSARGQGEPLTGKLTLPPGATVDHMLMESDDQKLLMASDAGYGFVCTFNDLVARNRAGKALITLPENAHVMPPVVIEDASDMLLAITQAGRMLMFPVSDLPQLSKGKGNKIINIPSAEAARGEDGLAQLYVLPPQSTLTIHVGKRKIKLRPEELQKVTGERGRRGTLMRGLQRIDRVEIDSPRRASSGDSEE
Sequence of E. coli topoisomerase IV (P20083 whole entry partner): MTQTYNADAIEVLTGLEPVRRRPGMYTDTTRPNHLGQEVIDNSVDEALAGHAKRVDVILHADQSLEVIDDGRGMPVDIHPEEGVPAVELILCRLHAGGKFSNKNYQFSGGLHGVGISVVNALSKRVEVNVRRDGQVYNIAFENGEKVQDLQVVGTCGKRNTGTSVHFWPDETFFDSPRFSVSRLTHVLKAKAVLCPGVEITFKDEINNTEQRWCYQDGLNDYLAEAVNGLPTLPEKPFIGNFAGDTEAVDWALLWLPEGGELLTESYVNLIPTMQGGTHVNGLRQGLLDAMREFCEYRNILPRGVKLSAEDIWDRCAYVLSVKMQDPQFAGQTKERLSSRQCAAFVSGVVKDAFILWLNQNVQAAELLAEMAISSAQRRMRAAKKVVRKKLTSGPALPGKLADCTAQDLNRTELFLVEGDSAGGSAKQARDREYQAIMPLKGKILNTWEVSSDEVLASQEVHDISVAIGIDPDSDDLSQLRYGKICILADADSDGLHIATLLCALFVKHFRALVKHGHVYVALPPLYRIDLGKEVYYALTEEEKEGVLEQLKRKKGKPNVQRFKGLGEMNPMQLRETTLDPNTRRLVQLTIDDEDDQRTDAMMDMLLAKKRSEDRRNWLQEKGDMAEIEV

[12] = system: MDR Gram-negative and Gram-positive pathogens; assay: MIC
[13] = target: hERG K+ channel (Homo sapiens, UniProt Q12809); assay: hERG automated patch-clamp; assay type: cell-based
Sequence of hERG K+ channel (Q12809 whole entry): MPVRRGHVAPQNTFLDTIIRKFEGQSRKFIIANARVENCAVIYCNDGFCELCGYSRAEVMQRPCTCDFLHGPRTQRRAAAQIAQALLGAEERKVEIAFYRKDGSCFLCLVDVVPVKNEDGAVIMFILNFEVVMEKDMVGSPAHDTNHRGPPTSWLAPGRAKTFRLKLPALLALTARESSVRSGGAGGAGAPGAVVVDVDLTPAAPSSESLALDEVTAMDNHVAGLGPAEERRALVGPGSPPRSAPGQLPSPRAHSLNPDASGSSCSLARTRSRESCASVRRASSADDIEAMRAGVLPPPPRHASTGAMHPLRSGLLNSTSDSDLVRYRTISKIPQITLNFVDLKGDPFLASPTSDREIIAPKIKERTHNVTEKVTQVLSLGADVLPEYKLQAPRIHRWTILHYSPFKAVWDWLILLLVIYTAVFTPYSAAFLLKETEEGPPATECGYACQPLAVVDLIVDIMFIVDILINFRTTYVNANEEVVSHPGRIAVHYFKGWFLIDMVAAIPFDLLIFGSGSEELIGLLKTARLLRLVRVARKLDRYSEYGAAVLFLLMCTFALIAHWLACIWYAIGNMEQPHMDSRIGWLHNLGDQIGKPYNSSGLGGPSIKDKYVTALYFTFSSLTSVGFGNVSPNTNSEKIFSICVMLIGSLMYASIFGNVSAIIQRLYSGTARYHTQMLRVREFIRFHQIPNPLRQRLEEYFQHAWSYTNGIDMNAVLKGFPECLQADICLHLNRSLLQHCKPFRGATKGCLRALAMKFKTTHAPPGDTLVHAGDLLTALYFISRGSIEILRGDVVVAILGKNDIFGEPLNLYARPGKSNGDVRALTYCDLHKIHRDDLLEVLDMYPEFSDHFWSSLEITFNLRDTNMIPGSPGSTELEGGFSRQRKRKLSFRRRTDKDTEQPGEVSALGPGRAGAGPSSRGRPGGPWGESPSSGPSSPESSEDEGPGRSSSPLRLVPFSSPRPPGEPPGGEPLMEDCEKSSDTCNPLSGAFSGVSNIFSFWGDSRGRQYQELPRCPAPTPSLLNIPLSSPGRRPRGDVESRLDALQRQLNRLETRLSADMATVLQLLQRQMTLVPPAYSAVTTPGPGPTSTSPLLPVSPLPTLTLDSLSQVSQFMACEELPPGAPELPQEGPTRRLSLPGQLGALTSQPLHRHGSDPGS

Compound: NCC[C@H](O)C(=O)N[C@@H]1C[C@H](N)[C@@H](O[C@H]2O[C@H](CN)[C@@H](O)[C@H](O)[C@H]2O)[C@H](O)[C@H]1O[C@H]1O[C@H](CO)[C@@H](O)[C@H](N)[C@H]1O [Amikacin]
- MIC90 [1]: 8 µg/mL (≈ 13.7 µM)
- MIC90 [2]: 64 µg/mL (≈ 109 µM)
- MIC90 [3]: 32 µg/mL (≈ 54.6 µM)
- MIC90 [4]: > 64 µg/mL
- MIC90 [5]: 4 µg/mL (≈ 6.83 µM)
- MIC90 [6]: 4 µg/mL (≈ 6.83 µM)
- MIC90 [7]: 4 µg/mL (≈ 6.83 µM)
- MIC90 [8]: 8 µg/mL (≈ 13.7 µM)

Compound: C[C@H]1[C@H](NC(=O)/C(=N\OC(C)(C)C(=O)O)c2csc(N)n2)C(=O)N1S(=O)(=O)O [Aztreonam]
- MIC90 [1]: > 64 µg/mL
- MIC90 [2]: > 16 µg/mL
- MIC90 [3]: > 64 µg/mL
- MIC90 [6]: 64 µg/mL (≈ 147 µM)
- MIC90 [7]: 0.5 µg/mL (≈ 1.15 µM)
- MIC90 [8]: 16 µg/mL (≈ 36.7 µM)

Compound: CO/N=C(\C(=O)N[C@@H]1C(=O)N2C(C(=O)[O-])=C(C[N+]3(C)CCCC3)CS[C@H]12)c1csc(N)n1 [Cefepime]
- MIC90 [1]: > 32 µg/mL
- MIC90 [2]: > 32 µg/mL
- MIC90 [3]: > 32 µg/mL
- MIC90 [4]: > 32 µg/mL
- MIC90 [6]: > 32 µg/mL
- MIC90 [7]: 16 µg/mL (≈ 33.3 µM)
- MIC90 [8]: > 32 µg/mL

Compound: CC(C)(O/N=C(\C(=O)N[C@@H]1C(=O)N2C(C(=O)[O-])=C(C[N+]3(CCNC(=O)c4ccc(O)c(O)c4Cl)CCCC3)CS[C@H]12)c1csc(N)n1)C(=O)O [Cefiderocol]
- MIC90 [1]: 2 µg/mL (≈ 2.66 µM)
- MIC90 [2]: 2 µg/mL (≈ 2.66 µM)
- MIC90 [3]: 2 µg/mL (≈ 2.66 µM)
- MIC90 [4]: 4 µg/mL (≈ 5.32 µM)
- MIC90 [5]: 4 µg/mL (≈ 5.32 µM)
- MIC90 [6]: 2 µg/mL (≈ 2.66 µM)
- MIC90 [7]: 0.5 µg/mL (≈ 0.665 µM)
- MIC90 [8]: 1 µg/mL (≈ 1.33 µM)

Compound: COCC1=C(C(=O)O)N2C(=O)[C@@H](NC(=O)/C(=N\OC)c3csc(N)n3)[C@H]2SC1 [Cefpodoxime]
- MIC90 [1]: > 32 µg/mL
- MIC90 [3]: > 32 µg/mL
- MIC90 [5]: 64 µg/mL (≈ 150 µM)
- MIC90 [6]: > 32 µg/mL
- MIC90 [7]: > 32 µg/mL
- MIC90 [8]: > 32 µg/mL

Compound: CC(C)(O/N=C(\C(=O)N[C@@H]1C(=O)N2C(C(=O)[O-])=C(C[n+]3ccccc3)CS[C@H]12)c1csc(N)n1)C(=O)O [Ceftazidime]
- MIC90 [1]: 64 µg/mL (≈ 117 µM)
- MIC90 [2]: > 32 µg/mL
- MIC90 [3]: > 64 µg/mL
- MIC90 [4]: > 32 µg/mL
- MIC90 [5]: 128 µg/mL (≈ 234 µM)
- MIC90 [6]: > 64 µg/mL
- MIC90 [7]: 2 µg/mL (≈ 3.66 µM)
- MIC90 [8]: 16 µg/mL (≈ 29.3 µM)

Compound: CO/N=C(\C(=O)N[C@@H]1C(=O)N2C(C(=O)O)=C(CSc3nc(=O)c(=O)[nH]n3C)CS[C@H]12)c1csc(N)n1 [Ceftriaxone]
- MIC90 [9]: 0.06 µg/mL (≈ 0.108 µM)

Compound: NCCCC1CN(c2ccc3c(n2)NC(=O)CO3)C(=O)O1 (stereo not drawn) [Compound 1, 6-[5-(3-Aminopropyl)−2-oxo-3-oxazolidinyl]−2H-pyrido[3,2-b]−1,4-oxazin-3(4H)-one]
- IC50 [10]: 13.2 µM
- IC50 [11]: 27 µM
- MIC [12]: 80 to 160 µg/mL (≈ 274 to 547 µM)

Compound: CN1C(=O)Cc2ccc(F)c(CNCCCC3CN(c4ccc5c(n4)NC(=O)CO5)C(=O)O3)c21 (stereo not drawn) [Compound 2, 6-[5-[3-[[(6-Fluoro-2,3-dihydro-1-methyl-2-oxo-1H-indol-7-yl)methyl]amino]propyl]−2-oxo-3-oxazolidinyl]−2H-pyrido[3,2-b]−1,4-oxazin-3(4H)-one]
- improvement in gyrase supercoiling and topoIV decatenation IC50 over compound 1 [10]: > 100 fold

Compound: CN1C(=O)Cc2ccc(F)c(CCNCC[C@H]3CN(c4ccc5c(n4)NC(=O)CO5)C(=O)O3)c21 [Compound 3, 6-[(5S)−5-[2-[[2-(6-fluoro-2,3-dihydro-1-methyl-2-oxo-1H-indol-7-yl)ethyl]amino]ethyl]−2-oxo-3-oxazolidinyl]−2H-pyrido[3,2-b]−1,4-oxazin-3(4H)-one]
- improvement in gyrase supercoiling and topoIV decatenation IC50 over compound 1 [10]: > 100 fold
- IC50 [11]: 0.36 µM

Compound: CN1C(=O)Cc2ccc(F)c(CCNC[C@H]3CN(c4ccc5c(n4)NC(=O)CO5)C(=O)O3)c21 [Compound 4, (S)−6-(5-(((2-(6-fluoro-1-methyl-2-oxoindolin-7-yl)ethyl)amino)methyl)−2-oxooxazolidin-3-yl)−2H-pyrido[3,2-b] [1,4] oxazin-3(4H)-one]
- IC50 [10]: 0.036 µM
- IC50 [11]: 0.057 µM

Compound: Cn1c(=O)ccc2ccc(F)c(CCNC[C@H]3CN(c4ncc5c(n4)NC(=O)CO5)C(=O)O3)c21 [Compound 6, 2-[(5S)−5-[[[2-(7-Fluoro-1,2-dihydro-1-methyl-2-oxo-8-quinolinyl)ethyl]amino]methyl]−2-oxo-3-oxazolidinyl]−6H-pyrimido[5,4-b][1,4]oxazin-7(8H)-one]
- increase in hERG IC50 vs compound 5 [13]: > 10 fold

Compound: Cn1c(=O)cnc2ccc(F)c(CCNC[C@H]3CN(c4cnc5c(n4)NC(=O)CO5)C(=O)O3)c21 [Compound 7, 6-[(5S)−5-[[[2-(6-Fluoro-3,4-dihydro-4-methyl-3-oxo-5-quinoxalinyl)ethyl]amino]methyl]−2-oxo-3-oxazolidinyl]−2H-pyrazino[2,3-b]−1,4-oxazin-3(4H)-one]
- increase in hERG IC50 vs compound 5 [13]: 4 fold
